{"source": "patent US20130122113A1", "about": "“ANTITUMORAL COMBINATION COMPRISING OMBRABULIN, A TAXANE DERIVATIVE AND A PLATINUM DERIVATIVE” (SANOFI, priority 2010, published 2013)", "key": {"[1]": {"assay": "clinical", "description": "Blood samples for pharmacokinetic analysis were obtained from all patients on Day 1, 2 and 3 at Cycle 1.\nA series of 2-mL blood samples were collected in heparinized (lithium heparinate) tubes as follows: • immediately prior to the end of infusion; • at 5, 10, 25, 45 and 60 minutes post infusion; • at 2, 4, 6, 8, 10 and 24 hours post infusion (i.e a total of 24 mL of blood)."}, "[2]": {"assay": "Phase I dose escalation study of ombrabulin with platinum salts and taxanes every 3 weeks: DLT, MAD, RD, TEAE", "format": "in vivo, patients", "description": "Dose Limiting Toxicity (DLT) at cycle 1.\nTwo groups of patients will be treated: one with docetaxel-cisplatin doublet (group 1) and the second with paclitaxel-carboplatin doublet (group 2), both in combination with ombrabulin.\nThe combination will be started with the following schedule (schedule A) for group 1:\nDay 1: ombrabulin as a 30 minutes i.v. infusion immediately followed by 120 minutes i.v. infusion of cisplatin, and\nDay 2: docetaxel administered as a 60 minutes i.v. infusion 24 hours apart ombrabulin infusion end and for the first 4 dose levels (I, II, III, IV).\nCohorts of 3 or 6 patients will receive escalating doses of ombrabulin (15.5, 20 and 25 mg/m^2) with a fixed dose of cisplatin at 75 mg/m^2 on Day 1, followed by docetaxel on Day 2, given either at 60 mg/m^2 for the ombrabulin doses of 15.5 and 20 mg/m^2 or at 75 mg/m^2 for the ombrabulin doses of 20 and 25 mg/m^2.\nTaking into consideration the recommended dose of the combination ombrabulin and cisplatin administered the same day (25 mg/m^2 and 75 mg/m^2 respectively) every 3 weeks, after dose level IV, even if MAD not reached at this dose level, dose escalation of ombrabulin will be stopped and the combination will be administered with the following schedule (schedule B) in the 2 groups:\nDay 1: ombrabulin as a 30 minutes i.v. infusion, and\nGroup 1: docetaxel administered as a 60 minutes i.v. infusion followed by cisplatin as a 120 minutes i.v. infusion, 24 hours apart ombrabulin infusion end.\nGroup 2: paclitaxel administered as a 180 minutes i.v. infusion followed by carboplatin as a 30 minutes i.v. infusion, 24 hours apart ombrabulin infusion end.\nCohorts of 3 or 6 patients will be screened and treated at each dose level. When the first three patients of a cohort have completed the first cycle, i.e. should have received at least one treatment course and should have been observed for acute toxicity for at least a 3-week follow-up period (or shorter period provided that a DLT has been observed), dose escalation strategy will be as follows: […]"}, "[3]": {"conditions": "cited from earlier work"}, "[4]": {"conditions": "ombrabulin 15.5 mg/m^2, 3 patients, cycle 1, mean (CV)"}, "[5]": {"conditions": "ombrabulin 20 mg/m^2, 26 patients, cycle 1, mean (CV)"}, "[6]": {"conditions": "ombrabulin 25 mg/m^2, 12 patients, cycle 1, mean (CV)"}, "[7]": {"conditions": "ombrabulin 30 mg/m^2, 6 patients, cycle 1, mean (CV)"}, "[8]": {"conditions": "ombrabulin 35 mg/m^2, 5 patients, cycle 1, mean (CV)"}, "[9]": {"conditions": "ombrabulin, Overall (15.5-35 mg/m^2), 52 patients, cycle 1, mean (CV)"}, "[10]": {"conditions": "ombrabulin, Overall (15.5-35 mg/m^2), 52 patients, cycle 1, mean (CV), listed as Ombrabulin"}}}
{"smiles": "COc1ccc(/C=C\\c2cc(OC)c(OC)c(OC)c2)cc1N", "note": "[ombrabulin metabolite, (Z)-1-(3-amino-4-methoxyphenyl)-2-(3,4,5-trimethoxyphenyl)ethene]", "values": [{"measurement": "Metabolite exposure relative to ombrabulin", "setting": "[1]; human, in vivo", "value": "about 2 fold"}]}
{"smiles": "COc1ccc(/C=C\\c2cc(OC)c(OC)c(OC)c2)cc1NC(=O)[C@@H](N)CO", "note": "[ombrabulin, (Z)-N-[2-methoxy-5-[2-(3,4,5-trimethoxyphenyl)vinyl]phenyl]-L-serinamide]", "values": [{"measurement": "maximum administered dose", "setting": "[2]; Cohort II: Ob d1, C75/D75 d2, 19 pts", "value": 35, "unit": "mg/m^2"}, {"measurement": "maximum administered dose", "setting": "[2]; Cohort III: Ob d1, CbAUC5/P175 d2, 18 pts", "value": 35, "unit": "mg/m^2"}, {"measurement": "maximum administered dose", "setting": "[2]; Cohort IV: Ob d1, CbAUC6/P200 d2, 19 pts", "value": 35, "unit": "mg/m^2"}, {"measurement": "AUC", "setting": "[1]; human, in vivo, 15.5 mg/m2", "value": 276, "unit": "ng·h/mL"}, {"measurement": "AUC(0-t)", "setting": "[1]; human, in vivo, 15.5 mg/m2", "value": 274, "unit": "ng·h/mL"}, {"measurement": "Cmax", "setting": "[1]; human, in vivo, 15.5 mg/m2", "value": 712, "unit": "ng/mL"}, {"measurement": "Tmax", "setting": "[1]; human, in vivo, 15.5 mg/m2", "value": 28.8, "unit": "min"}, {"measurement": "AUC", "setting": "[1]; human, in vivo, 20 mg/m2", "value": 353, "unit": "ng·h/mL"}, {"measurement": "AUC(0-t)", "setting": "[1]; human, in vivo, 20 mg/m2", "value": 351, "unit": "ng·h/mL"}, {"measurement": "Cmax", "setting": "[1]; human, in vivo, 20 mg/m2", "value": 861, "unit": "ng/mL"}, {"measurement": "Tmax", "setting": "[1]; human, in vivo, 20 mg/m2", "value": 28.8, "unit": "min"}, {"measurement": "AUC", "setting": "[1]; human, in vivo, 25 mg/m2", "value": 383, "unit": "ng·h/mL"}, {"measurement": "AUC(0-t)", "setting": "[1]; human, in vivo, 25 mg/m2", "value": 381, "unit": "ng·h/mL"}, {"measurement": "Cmax", "setting": "[1]; human, in vivo, 25 mg/m2", "value": 973, "unit": "ng/mL"}, {"measurement": "Tmax", "setting": "[1]; human, in vivo, 25 mg/m2", "value": 29.4, "unit": "min"}, {"measurement": "AUC", "setting": "[1]; human, in vivo, 30 mg/m2", "value": 510, "unit": "ng·h/mL"}, {"measurement": "AUC(0-t)", "setting": "[1]; human, in vivo, 30 mg/m2", "value": 508, "unit": "ng·h/mL"}, {"measurement": "Cmax", "setting": "[1]; human, in vivo, 30 mg/m2", "value": 1170, "unit": "ng/mL"}, {"measurement": "Tmax", "setting": "[1]; human, in vivo, 30 mg/m2", "value": 32.4, "unit": "min"}, {"measurement": "AUC", "setting": "[1]; human, in vivo, 35 mg/m2", "value": 493, "unit": "ng·h/mL"}, {"measurement": "AUC(0-t)", "setting": "[1]; human, in vivo, 35 mg/m2", "value": 491, "unit": "ng·h/mL"}, {"measurement": "Cmax", "setting": "[1]; human, in vivo, 35 mg/m2", "value": 1270, "unit": "ng/mL"}, {"measurement": "Tmax", "setting": "[1]; human, in vivo, 35 mg/m2", "value": 30, "unit": "min"}, {"measurement": "half-life", "setting": "[1]; human, in vivo, t1/2Z (terminal elimination half-life), ombrabulin, Overall (15.5-35 mg/m^2), 52 patients, cycle 1, mean (CV)", "value": 17, "unit": "min"}, {"measurement": "conversion to its active metabolite", "setting": "[1]; in patients after i.v. infusion", "value": "rapidly converted"}, {"measurement": "Vss", "setting": "[1]; [4]", "value": "18.2 (32) L/m^2"}, {"measurement": "t1/2Z", "setting": "[1]; [4]", "value": "20.9 (76) min"}, {"measurement": "CL", "setting": "[1]; [5]", "value": "64.6 (42) L/h/m^2"}, {"measurement": "Vss", "setting": "[1]; [5]", "value": "22.0 (57) L/m^2"}, {"measurement": "t1/2Z", "setting": "[1]; [5]", "value": "17.7 (50) min"}, {"measurement": "CL", "setting": "[1]; [6]", "value": "80.1 (49) L/h/m^2"}, {"measurement": "Vss", "setting": "[1]; [6]", "value": "27.2 (76) L/m^2"}, {"measurement": "t1/2Z", "setting": "[1]; [6]", "value": "15.3 (37) min"}, {"measurement": "CL", "setting": "[1]; [7]", "value": "63.4 (33) L/h/m^2"}, {"measurement": "Vss", "setting": "[1]; [7]", "value": "24.3 (37) L/m^2"}, {"measurement": "t1/2Z", "setting": "[1]; [7]", "value": "18.5 (65) min"}, {"measurement": "CL", "setting": "[1]; [8]", "value": "95.7 (63) L/h/m^2"}, {"measurement": "Vss", "setting": "[1]; [8]", "value": "32.8 (78) L/m^2"}, {"measurement": "t1/2Z", "setting": "[1]; [8]", "value": "14.3 (28) min"}, {"measurement": "CL", "setting": "[1]; [9]", "value": "72.9 (23) L/h/m^2"}, {"measurement": "Vss", "setting": "[1]; [9]", "value": "25.0 (33) L/m^2"}, {"measurement": "t1/2Z (terminal elimination half-life)", "setting": "[1]; [9]", "value": "17.3 (15) min"}, {"measurement": "CL", "setting": "[1]; [10]", "value": 72.9, "unit": "L/h/m^2"}, {"measurement": "Vss", "setting": "[1]; [10]", "value": 25.0, "unit": "L/m^2"}, {"measurement": "recommended dose in monotherapy", "setting": "[3]; ombrabulin monotherapy", "value": 50, "unit": "mg/m^2"}, {"measurement": "recommended dose of ombrabulin in combination with cisplatin", "setting": "[3]; with cisplatin 75 mg/m^2 administered the same day, every 3 weeks", "value": 25, "unit": "mg/m^2"}, {"measurement": "recommended dose of ombrabulin in bi-therapy with docetaxel", "setting": "[3]; with docetaxel 75 mg/m^2, on-going phase I trial", "value": 35, "unit": "mg/m^2"}]}
